Results published in patent US20120029187A1, “HALOALKYLSULFONANILIDE DERIVATIVE” (Nissan Chemical Industries, Ltd., priority 2009, published 2012).

What was measured:
Type in all cases: in vivo
barnyardgrass [1] = assay: Test Example 1: herbicidal effects in preemergence treatment under submerged conditions; settings: dose 2.52 g/a
Method in brief: (§1)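 Scoring 0 (<5% mortality) to 5 (≥90%) was done three weeks after preemergence application to the water surface of submerged (4 cm) alluvial soil, doses given as g per are. Weeds were seeded and 2.5-leaf rice transplanted on the treatment day; greenhouse at 25–30 °C.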

bulrush [2] = assay: as above; settings: dose 2.52 g/a
Method in brief: as §1

ducksalad [3] = assay: as above; settings: dose 2.52 g/a
Method in brief: as §1

transplanted rice = assay: Test Example 1: preemergence treatment under submerged conditions, effect on crop; settings: dose 2.52 g/a
Method in brief: as §1

barnyardgrass [4] = assay: Test Example 2: herbicidal effects during the vegetation period under submerged conditions; settings: treatment during the vegetation period under submerged conditions; dose 2.52 g/a
Method in brief: (§2)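 Barnyardgrass, bulrush and ducksalad were co-sown in alluvial soil flooded to 4 cm and grown in a greenhouse at 25 to 30° C. At the 1- or 2-leaf stage, water-diluted emulsifiable concentrates went onto the water surface at set doses (g/a). Herbicidal effect was scored three weeks later on a graded scale.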

bulrush [5] = assay: as above; settings: treatment during the vegetation period under submerged conditions; dose 2.52 g/a
Method in brief: as §2

ducksalad [6] = assay: as above; settings: treatment during the vegetation period under submerged conditions; dose 2.52 g/a
Method in brief: as §2

Italian ryegrass [7] = assay: Test Example 3: herbicidal effects in soil treatment; settings: dose 3.2 g/a
Method in brief: (§3)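 Seeds were sown in sterilized diluvial soil and covered with about 1.5 cm of soil. Compounds, formulated as emulsifiable concentrates and diluted with water, were sprayed evenly over the soil surface at set doses in g/a. Herbicidal effect was scored on a rating scale three weeks later.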

barnyardgrass [8] = assay: as above; settings: dose 3.2 g/a
Method in brief: as §3

beadstraw [9] = assay: as above; settings: dose 3.2 g/a
Method in brief: as §3

common chickweed [10] = assay: as above; settings: dose 3.2 g/a
Method in brief: as §3

common lambsquater [11] = assay: as above; settings: dose 3.2 g/a
Method in brief: as §3

common ragweed [12] = assay: as above; settings: dose 3.2 g/a
Method in brief: as §3

giant foxtail [13] = assay: as above; settings: dose 3.2 g/a
Method in brief: as §3

large crabgrass [14] = assay: as above; settings: dose 3.2 g/a
Method in brief: as §3

redroot pigweed [15] = assay: as above; settings: dose 3.2 g/a
Method in brief: as §3

velvetleaf [16] = assay: as above; settings: dose 3.2 g/a
Method in brief: as §3

water foxtail [17] = assay: as above; settings: dose 3.2 g/a
Method in brief: as §3

wild oat [18] = assay: as above; settings: dose 3.2 g/a
Method in brief: as §3

Italian ryegrass [19] = assay: Test Example 4: herbicidal effect in foliage treatment; settings: dose 3.2 g/a
Method in brief: (§4)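 Sowing in sterilized diluvial soil, ~1.5 cm cover; growth 14 d, 25–30° C greenhouse; foliar spray of water-diluted EC at predetermined g/a; scoring 3 wk later on graded scale.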

barnyardgrass [20] = assay: as above; settings: dose 3.2 g/a
Method in brief: as §4

beadstraw [21] = assay: as above; settings: dose 3.2 g/a
Method in brief: as §4

common chickweed [22] = assay: as above; settings: dose 3.2 g/a
Method in brief: as §4

common lambsquater [23] = assay: as above; settings: dose 3.2 g/a
Method in brief: as §4

common ragweed [24] = assay: as above; settings: dose 3.2 g/a
Method in brief: as §4

giant foxtail [25] = assay: as above; settings: dose 3.2 g/a
Method in brief: as §4

large crabgrass [26] = assay: as above; settings: dose 3.2 g/a
Method in brief: as §4

posumbu knotweed = assay: as above; settings: dose 3.2 g/a
Method in brief: as §4

redroot pigweed [27] = assay: as above; settings: dose 3.2 g/a
Method in brief: as §4

velvetleaf [28] = assay: as above; settings: dose 3.2 g/a
Method in brief: as §4

water foxtail [29] = assay: as above; settings: dose 3.2 g/a
Method in brief: as §4

wild oat [30] = assay: as above; settings: dose 3.2 g/a
Method in brief: as §4

[31] = three weeks after the application

`CCOC(=O)N(c1ccccc1CN1CSCCC1=O)S(=O)(=O)C(F)(F)F` [II-79] was tested, and the “A: barnyardgrass, herbicidal effect (evaluation scale 0-5)” value (barnyardgrass [1]) was 5 (mortality of 90% or above (nearly complete death)), the “B: bulrush, herbicidal effect (evaluation scale 0-5)” value (“B: bulrush, herbicidal effect” below) (bulrush [2]) was 5 (mortality of 90% or above (nearly complete death)) and the “C: ducksalad, herbicidal effect (evaluation scale 0-5)” value (shortened to “C: ducksalad, herbicidal effect”) (ducksalad [3]) was 5 (mortality of 90% or above (nearly complete death)). For the same molecule, the “a: transplanted rice, effect on crop (evaluation scale 0-5)” value (transplanted rice) was 0 (mortality of less than 5% (almost ineffective)), the “A: barnyardgrass, herbicidal effect (evaluation scale 0-5)” value (barnyardgrass [4]) was 5 (mortality of 90% or above (nearly complete death)) and the “B: bulrush, herbicidal effect” value (bulrush [5]) was 5 (mortality of 90% or above (nearly complete death)). The “C: ducksalad, herbicidal effect” value (ducksalad [6]) was 5 (mortality of 90% or above (nearly complete death)), the “herbicidal effect, H: Italian ryegrass” value (Italian ryegrass [7]) was 3 (mortality of at least 40% and less than 70%) and the “herbicidal effect, A: barnyardgrass” value (barnyardgrass [8]) was 5 (mortality of 90% or above (nearly complete death)). The “herbicidal effect, O: beadstraw” value (beadstraw [9]) was 0 (mortality of less than 5% (almost ineffective)), the “herbicidal effect, N: common chickweed” value (common chickweed [10]) was 4 (mortality of at least 70% and less than 90%) and the “herbicidal effect, L: common lambsquater” value (common lambsquater [11]) was 3 (mortality of at least 40% and less than 70%). The “herbicidal effect, J: common ragweed” value (common ragweed [12]) was 4 (mortality of at least 70% and less than 90%), the “herbicidal effect, E: giant foxtail” value (giant foxtail [13]) was 5 (mortality of 90% or above (nearly complete death)) and the “herbicidal effect, D: large crabgrass” value (large crabgrass [14]) was 5 (mortality of 90% or above (nearly complete death)). The “herbicidal effect, K: redroot pigweed” value (redroot pigweed [15]) was 2 (mortality of at least 20% and less than 40%), the “herbicidal effect, I: velvetleaf” value (velvetleaf [16]) was 5 (mortality of 90% or above (nearly complete death)) and the “herbicidal effect, G: water foxtail” value (water foxtail [17]) was 5 (mortality of 90% or above (nearly complete death)). The “herbicidal effect, F: wild oat” value (wild oat [18]) was 0 (mortality of less than 5% (almost ineffective)), the “H: Italian ryegrass, herbicidal effect” value (Italian ryegrass [19]; [31]) was 3 (mortality of at least 40% and less than 70%) and the “A: barnyardgrass, herbicidal effect” value (barnyardgrass [20]; [31]) was 5 (mortality of 90% or above (nearly complete death)). The “O: beadstraw, herbicidal effect” value (beadstraw [21]; [31]) was 4 (mortality of at least 70% and less than 90%), the “N: common chickweed, herbicidal effect” value (common chickweed [22]; [31]) was 4 (mortality of at least 70% and less than 90%) and the “L: common lambsquater, herbicidal effect” value (common lambsquater [23]; [31]) was 3 (mortality of at least 40% and less than 70%). The “J: common ragweed, herbicidal effect” value (common ragweed [24]; [31]) was 4 (mortality of at least 70% and less than 90%), the “E: giant foxtail, herbicidal effect” value (giant foxtail [25]; [31]) was 4 (mortality of at least 70% and less than 90%) and the “D: large crabgrass, herbicidal effect” value (large crabgrass [26]; [31]) was 4 (mortality of at least 70% and less than 90%). The “M: posumbu knotweed, herbicidal effect” value (posumbu knotweed; [31]) was 4 (mortality of at least 70% and less than 90%), the “K: redroot pigweed, herbicidal effect” value (redroot pigweed [27]; [31]) was 1 (mortality of at least 5% and less than 20%) and the “I: velvetleaf, herbicidal effect” value (velvetleaf [28]; [31]) was 4 (mortality of at least 70% and less than 90%). For the same molecule, the “G: water foxtail, herbicidal effect” value (water foxtail [29]; [31]) was 5 (mortality of 90% or above (nearly complete death)) and the “F: wild oat, herbicidal effect” value (wild oat [30]; [31]) was 0 (mortality of less than 5% (almost ineffective)).

`COC(=O)N(c1ccccc1CN1COC(C)(C)CC1=O)S(=O)(=O)C(F)(F)F` [II-22] was tested, and the “A: barnyardgrass, herbicidal effect (evaluation scale 0-5)” value (barnyardgrass [1]) was 5 (mortality of 90% or above (nearly complete death)), the “B: bulrush, herbicidal effect” value (bulrush [2]) was 5 (mortality of 90% or above (nearly complete death)) and the “C: ducksalad, herbicidal effect” value (ducksalad [3]) was 5 (mortality of 90% or above (nearly complete death)). The “a: transplanted rice, effect on crop (evaluation scale 0-5)” value (transplanted rice) was 0 (mortality of less than 5% (almost ineffective)), the “A: barnyardgrass, herbicidal effect (evaluation scale 0-5)” value (barnyardgrass [4]) was 5 (mortality of 90% or above (nearly complete death)) and the “B: bulrush, herbicidal effect” value (bulrush [5]) was 5 (mortality of 90% or above (nearly complete death)). The “C: ducksalad, herbicidal effect” value (ducksalad [6]) was 5 (mortality of 90% or above (nearly complete death)), the “H: Italian ryegrass, herbicidal effect (evaluation scale 0-5)” value (Italian ryegrass [7]) was 5 (mortality of 90% or above (nearly complete death)) and the “A: barnyardgrass, herbicidal effect (evaluation scale 0-5)” value (barnyardgrass [8]) was 5 (mortality of 90% or above (nearly complete death)). The “O: beadstraw, herbicidal effect (evaluation scale 0-5)” value (beadstraw [9]) was 5 (mortality of 90% or above (nearly complete death)), the “N: common chickweed, herbicidal effect (evaluation scale 0-5)” value (common chickweed [10]) was 4 (mortality of at least 70% and less than 90%) and the “L: common lambsquater, herbicidal effect (evaluation scale 0-5)” value (common lambsquater [11]) was 4 (mortality of at least 70% and less than 90%). For the same molecule, the “J: common ragweed, herbicidal effect (evaluation scale 0-5)” value (common ragweed [12]) was 3 (mortality of at least 40% and less than 70%), the “E: giant foxtail, herbicidal effect (evaluation scale 0-5)” value (giant foxtail [13]) was 3 (mortality of at least 40% and less than 70%) and the “D: large crabgrass, herbicidal effect (evaluation scale 0-5)” value (large crabgrass [14]) was 5 (mortality of 90% or above (nearly complete death)). The “K: redroot pigweed, herbicidal effect (evaluation scale 0-5)” value (redroot pigweed [15]) was 0 (mortality of less than 5% (almost ineffective)), the “I: velvetleaf, herbicidal effect (evaluation scale 0-5)” value (velvetleaf [16]) was 5 (mortality of 90% or above (nearly complete death)) and the “G: water foxtail, herbicidal effect (evaluation scale 0-5)” value (water foxtail [17]) was 5 (mortality of 90% or above (nearly complete death)). For the same molecule, the “F: wild oat, herbicidal effect (evaluation scale 0-5)” value (wild oat [18]) was 0 (mortality of less than 5% (almost ineffective)), the “H: Italian ryegrass, herbicidal effect” value (Italian ryegrass [19]; three weeks after application) was 4 (mortality of at least 70% and less than 90%) and the “A: barnyardgrass, herbicidal effect” value (barnyardgrass [20]; three weeks after application) was 5 (mortality of 90% or above (nearly complete death)). For the same molecule, the “O: beadstraw, herbicidal effect” value (beadstraw [21]; three weeks after application) was 5 (mortality of 90% or above (nearly complete death)), the “N: common chickweed, herbicidal effect” value (common chickweed [22]; three weeks after application) was 3 (mortality of at least 40% and less than 70%) and the “L: common lambsquater, herbicidal effect” value (common lambsquater [23]; three weeks after application) was 3 (mortality of at least 40% and less than 70%). The “J: common ragweed, herbicidal effect” value (common ragweed [24]; three weeks after application) was 4 (mortality of at least 70% and less than 90%), the “E: giant foxtail, herbicidal effect” value (giant foxtail [25]; three weeks after application) was 5 (mortality of 90% or above (nearly complete death)) and the “D: large crabgrass, herbicidal effect” value (large crabgrass [26]; three weeks after application) was 5 (mortality of 90% or above (nearly complete death)). The “M: posumbu knotweed, herbicidal effect” value (posumbu knotweed; three weeks after application) was 3 (mortality of at least 40% and less than 70%), the “K: redroot pigweed, herbicidal effect” value (redroot pigweed [27]; three weeks after application) was 0 (mortality of less than 5% (almost ineffective)) and the “I: velvetleaf, herbicidal effect” value (velvetleaf [28]; three weeks after application) was 5 (mortality of 90% or above (nearly complete death)). For the same molecule, the “G: water foxtail, herbicidal effect” value (water foxtail [29]; three weeks after application) was 5 (mortality of 90% or above (nearly complete death)) and the “F: wild oat, herbicidal effect” value (wild oat [30]; three weeks after application) was 0 (mortality of less than 5% (almost ineffective)).
